# Source: article PMC10384936, “Identification and Biological Characterization of the Pyrazolo[3,4-d]pyrimidine Derivative SI388 Active as Src Inhibitor” (Pharmaceuticals, 2023)
# How the values were obtained:
# Abl = molecular target: T1, Abl (Homo sapiens, UniProt P00519); experiment: Abl enzymatic assay (ADP-Glo kinase assay); assay type: biochemical
# T1 construct: purchased Merck-Millipore
# Method: (§1) Src, Fyn, and Abl were purchased from Merck-Millipore. Reactions were performed according to the manufacturer’s instructions with minor modifications. All substrates were used at least at twice the concentration of apparent Km. In detail: Src reactions were performed using 500 μM Src-peptide (KVEKIGEGTYGVVYK), 100 μM ATP, and 0.00087% NP-40; Fyn reactions were performed using 360 μM Src-peptide (KVEKIGEGTYGVVYK), 200 μM ATP, and 0.0026% NP-40; Abl reactions were performed using 50 μM abltide (EAIYAAPFAKKK), 30 μM ATP, and 0.00087% NP-40. All reactions were performed using 10–50 ng of enzyme and 10% DMSO in 10 μL of kinase buffer (8 mM MOPS-NaOH pH7.0, 0.2 mM EDTA, 10 mM MgAc) at 30 °C for 10 min.
# (§2) To avoid peptide adsorbing to the plastic surface, protein low-binding tubes were used. ADP-Glo kinase assay (Promega) was then used to detect kinase activity according to the manufacturer’s instructions with minor modifications. In detail, reactions were transferred to white 384 well-plates and stopped by adding 10 µL of ADP-Glo reagent (Promega) for 50 min at room temperature. A total of 20 μL of detection reagent (Promega) was then added for 30 min and the reaction read using a GloMax Discover microplate reader (Promega). Data were plotted using GraphPad Prism 5.0. IC50 values were obtained according to Equation (1):v = V/{1 + (I/IC50)} (1) where v is the measured reaction velocity, V is the apparent maximal velocity in the absence of inhibitor, I is the inhibitor concentration, and IC50 is the 50% inhibitory dose. Compounds tested were assumed to act as fully ATP-competitive inhibitors. Therefore, Ki values were calculated according to Equation (2):Ki = IC50/(1+ […]) (2) where Ki is the affinity of the inhibitor to the enzyme, S is the ATP concentration, and Km is the affinity of ATP calculated according to the Michaelis–Menten equation.
# Src = molecular target: T2, Src (Homo sapiens, UniProt P12931); experiment: Src enzymatic assay (ADP-Glo kinase assay); assay type: biochemical; conditions: for Ki: mean of at least three experiments, 100 μM ATP
# T2 construct: purchased Merck-Millipore
# Method: as §1, §2
# Fyn = molecular target: T3, Fyn (Homo sapiens, UniProt P06241); experiment: Fyn enzymatic assay (ADP-Glo kinase assay); assay type: biochemical; conditions: for Ki: mean of at least three experiments, 200 μM ATP
# T3 construct: purchased Merck-Millipore
# Method: as §1, §2
# T1 sequence (P00519 whole entry, species assumed): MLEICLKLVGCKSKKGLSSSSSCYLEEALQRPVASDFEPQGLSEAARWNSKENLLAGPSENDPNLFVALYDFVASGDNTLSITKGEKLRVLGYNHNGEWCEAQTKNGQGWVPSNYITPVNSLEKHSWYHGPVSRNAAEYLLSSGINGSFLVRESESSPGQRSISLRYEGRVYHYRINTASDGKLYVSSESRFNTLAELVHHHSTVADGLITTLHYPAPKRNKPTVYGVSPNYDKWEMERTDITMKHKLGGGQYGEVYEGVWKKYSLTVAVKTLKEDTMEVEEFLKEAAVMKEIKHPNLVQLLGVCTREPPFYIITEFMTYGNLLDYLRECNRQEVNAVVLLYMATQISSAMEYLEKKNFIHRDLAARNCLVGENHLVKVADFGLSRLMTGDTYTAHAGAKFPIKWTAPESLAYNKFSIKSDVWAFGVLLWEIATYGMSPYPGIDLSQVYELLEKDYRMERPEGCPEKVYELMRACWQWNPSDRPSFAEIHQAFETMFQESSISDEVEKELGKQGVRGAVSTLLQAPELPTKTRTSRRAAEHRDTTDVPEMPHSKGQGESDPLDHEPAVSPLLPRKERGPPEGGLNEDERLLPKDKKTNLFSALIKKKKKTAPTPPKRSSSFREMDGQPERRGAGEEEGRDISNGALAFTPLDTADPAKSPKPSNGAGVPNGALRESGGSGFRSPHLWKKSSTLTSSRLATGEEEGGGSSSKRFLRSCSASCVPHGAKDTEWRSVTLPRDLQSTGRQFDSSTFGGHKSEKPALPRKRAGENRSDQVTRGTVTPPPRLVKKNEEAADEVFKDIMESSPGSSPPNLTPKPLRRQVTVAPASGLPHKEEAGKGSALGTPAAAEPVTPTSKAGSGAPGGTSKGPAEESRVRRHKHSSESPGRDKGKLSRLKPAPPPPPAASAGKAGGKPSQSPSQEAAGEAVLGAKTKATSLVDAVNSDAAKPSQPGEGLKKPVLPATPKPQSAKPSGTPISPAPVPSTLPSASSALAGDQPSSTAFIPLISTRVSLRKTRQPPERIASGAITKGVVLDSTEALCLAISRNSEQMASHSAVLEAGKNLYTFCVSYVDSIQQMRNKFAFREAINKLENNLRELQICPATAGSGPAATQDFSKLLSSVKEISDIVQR
# T2 sequence (P12931 whole entry, species assumed): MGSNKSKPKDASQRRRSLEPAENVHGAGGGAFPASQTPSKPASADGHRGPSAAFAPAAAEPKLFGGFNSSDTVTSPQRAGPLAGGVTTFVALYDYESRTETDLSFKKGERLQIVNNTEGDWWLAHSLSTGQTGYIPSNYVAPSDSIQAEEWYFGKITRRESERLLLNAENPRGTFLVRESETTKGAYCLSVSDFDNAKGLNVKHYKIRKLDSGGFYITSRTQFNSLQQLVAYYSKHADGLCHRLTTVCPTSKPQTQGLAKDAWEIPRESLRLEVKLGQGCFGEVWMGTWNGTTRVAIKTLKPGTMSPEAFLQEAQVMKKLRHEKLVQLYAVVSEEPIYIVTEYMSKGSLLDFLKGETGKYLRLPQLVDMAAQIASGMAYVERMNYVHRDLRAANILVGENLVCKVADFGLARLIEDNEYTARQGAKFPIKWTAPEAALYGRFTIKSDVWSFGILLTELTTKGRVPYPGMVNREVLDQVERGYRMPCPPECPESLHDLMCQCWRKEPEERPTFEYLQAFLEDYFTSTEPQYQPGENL
# T3 sequence (P06241 whole entry, species assumed): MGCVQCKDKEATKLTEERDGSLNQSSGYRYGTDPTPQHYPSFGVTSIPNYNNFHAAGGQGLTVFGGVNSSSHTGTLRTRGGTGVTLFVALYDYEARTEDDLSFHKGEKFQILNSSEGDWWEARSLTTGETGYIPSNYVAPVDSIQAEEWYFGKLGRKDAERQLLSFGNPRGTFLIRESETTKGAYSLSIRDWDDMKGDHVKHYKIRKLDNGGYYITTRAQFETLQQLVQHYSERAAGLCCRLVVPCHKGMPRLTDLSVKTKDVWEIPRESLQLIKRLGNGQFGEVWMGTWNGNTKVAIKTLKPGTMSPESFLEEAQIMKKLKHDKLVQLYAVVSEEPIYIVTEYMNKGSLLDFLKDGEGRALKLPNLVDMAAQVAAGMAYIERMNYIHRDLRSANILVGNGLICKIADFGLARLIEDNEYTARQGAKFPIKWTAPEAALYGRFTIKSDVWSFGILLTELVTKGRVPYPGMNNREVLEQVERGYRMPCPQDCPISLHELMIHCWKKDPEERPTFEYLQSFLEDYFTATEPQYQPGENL
SMILES,Activity towards Bcr-Abl in cell-free assay (in words) (Abl),inhibition at 10 µM (Abl) [%],Activity towards Src in cell-free assay (in words) (Src),inhibition at 1 µM (Src) [%],inhibition at 1 µM (Fyn) [%],inhibition at 10 µM (Fyn) [%],inhibition at 1 µM (Abl) [%],inhibition at 10 µM (Src) [%],melting point,inhibition at 100 µM (Fyn) [%],inhibition at 100 µM (Src) [%],Ki (Fyn) [µM],Ki (Src) [µM]
"CSc1nc(Nc2ccc(Cl)cc2)c2cnn(CC(Cl)c3ccccc3)c2n1 (centres unmarked) [2b, 1-(2-Chloro-2-phenylethyl)-N-(4-chlorophenyl)-6-(methylthio)-1H-pyrazolo[3,4-d]pyrimidin-4-amine]",inactive,23,inactive,24,,,,,,,,,
"CCSc1nc(Nc2ccccc2)c2cnn(CC(Cl)c3ccccc3)c2n1 (centres unmarked) [2c, 1-(2-Chloro-2-phenylethyl)-6-(ethylthio)-N-phenyl-1H-pyrazolo[3,4-d]pyrimidin-4-amine]",,35,,16,33,64,18,27,128 to 131 °C,,,,
"CC(C)Sc1nc(Nc2cccc(Cl)c2)c2cnn(CC(Cl)c3ccccc3)c2n1 (centres unmarked) [2d, 1-(2-Chloro-2-phenylethyl)-N-(3-chlorophenyl)-6-(isopropylthio)-1H-pyrazolo[3,4-d]pyrimidin-4-amine]",,24,,,,8,,34,,26,99.5,,
"Clc1ccccc1Nc1nc(SCCN2CCOCC2)nc2c1cnn2CC(Cl)c1ccccc1 (centres unmarked) [2e, 1-(2-Chloro-2-phenylethyl)-N-(2-chlorophenyl)-6-((2-morpholinoethyl)thio)-1H-pyrazolo[3,4-d]pyrimidin-4-amine]",,26.3,,,,,,,117 to 118 °C,,,,
"Cl.Oc1cc(Nc2nc(SCCN3CCOCC3)nc3c2cnn3CC(Cl)c2ccccc2)ccc1F (centres unmarked) [2f, 5-({1-(2-Chloro-2-phenylethyl)-6-[(2-morpholinoethyl)thio]-1H-pyrazolo[3,4-d]pyrimidin-4-yl)amino)-2-fluorophenol hydrochloride]",,67,,,,,3,79,238 to 239 °C,,,,
"Oc1cc(Nc2nc(SCCN3CCOCC3)nc3c2cnn3CC(Cl)c2ccccc2)c(F)cc1F (centres unmarked) [2g, 5-((1-(2-Chloro-2-phenylethyl)-6-((2-morpholinoethyl)thio)-1H-pyrazolo[3,4-d]pyrimidin-4-yl)amino)-2,4-difluorophenol]",,83,,43.3,,,33.5,93.6,146 to 149 °C,,,,
"CCc1nc(Nc2ccccc2)c2cnn(CC(Cl)c3ccccc3)c2n1 (centres unmarked) [2h, 1-(2-Chloro-2-phenylethyl)-6-ethyl-N-phenyl-1H-pyrazolo[3,4-d]pyrimidin-4-amine]",,,,,,57,34,12,174 to 176 °C,82,98.3,10.3 ± 3.13,
"Clc1cccc(Nc2nc(C3CCCC3)nc3c2cnn3CC(Cl)c2ccccc2)c1 (centres unmarked) [2i, 1-(2-Chloro-2-phenylethyl)-N-(3-chlorophenyl)-6-cyclopentyl-1H-pyrazolo[3,4-d]pyrimidin-4-amine]",,,,,,15,,56,189 to 190 °C,19,98.8,,
"ClC(Cn1ncc2c(Nc3ccccc3)nc(C3CCCCC3)nc21)c1ccccc1 (centres unmarked) [2j, 1-(2-Chloro-2-phenylethyl)-6-cyclohexyl-N-phenyl-1H-pyrazolo[3,4-d]pyrimidin-4-amine]",,,,,,13,39,5,134 to 136 °C,38,95.3,,
"FC(F)(F)c1nc(Nc2ccccc2)c2cnn(CC(Cl)c3ccccc3)c2n1 (centres unmarked) [2k, 1-(2-Chloro-2-phenylethyl)-N-phenyl-6-(trifluoromethyl)-1H-pyrazolo[3,4-d]pyrimidin-4-amine]",,39,,,,47,,50.3,139 to 141 °C,66,99.2,3.79 ± 1.01,
"Fc1cccc(Nc2nc(C(F)(F)F)nc3c2cnn3CC(Cl)c2ccccc2)c1 (centres unmarked) [2l, 1-(2-Chloro-2-phenylethyl)-N-(3-fluorophenyl)-6-(trifluoromethyl)-1H-pyrazolo[3,4-d]pyrimidin-4-amine]",,,,,19,10,40,,164 to 166 °C,,,,
"FC(F)(F)c1nc(Nc2cccc(Cl)c2)c2cnn(CC(Cl)c3ccccc3)c2n1 (centres unmarked) [2m, N-(3-Chlorophenyl)-1-(2-chloro-2-phenylethyl)-6-trifluoromethyl-1H-pyrazolo[3,4-d]pyrimidin-4-amine]",,18,,,2.5,20,15,67,88 to 90 °C,,,,
"ClC(Cn1ncc2c(Nc3ccccc3)nc(-c3ccccc3)nc21)c1ccccc1 (centres unmarked) [2n, 1-(2-Chloro-2-phenylethyl)-N,6-diphenyl-1H-pyrazolo[3,4-d]pyrimidin-4-amine]",,18,,11,16,23,5,13,130 to 140 °C (dec.),,,,
"Clc1cccc(Nc2nc(-c3ccccc3)nc3c2cnn3CC(Cl)c2ccccc2)c1 (centres unmarked) [2o, 1-(2-Chloro-2-phenylethyl)-N-(3-chlorophenyl)-6-phenyl-1H-pyrazolo[3,4-d]pyrimidin-4-amine]",,,,,,8,,,82 to 84 °C,,,,
"CSc1nc(Nc2ccccc2)c2cnn(CC(Cl)c3ccc(F)cc3)c2n1 (centres unmarked) [2p, 1-(2-Chloro-2-(4-fluorophenyl)ethyl)-6-(methylthio)-N-phenyl-1H-pyrazolo[3,4-d]pyrimidin-4-amine]",,12,,14,15,60,,55,227 to 230 °C,,,2.68 ± 0.37,14.4 ± 4.4
"Cc1nc(Nc2ccccc2)c2cnn(CC(Cl)c3ccc(Cl)cc3)c2n1 (centres unmarked) [2q, 1-(2-Chloro-2-(4-chlorophenyl)ethyl)-6-methyl-N-phenyl-1H-pyrazolo[3,4-d]pyrimidin-4-amine]",,25,,29,24,78,20,48,202 to 203 °C,,,2.07 ± 1.1,16.5 ± 4
"CCc1nc(Nc2ccccc2)c2cnn(CC(Cl)c3ccc(Cl)cc3)c2n1 (centres unmarked) [2r, 1-(2-Chloro-2-(4-chlorophenyl)ethyl)-6-ethyl-N-phenyl-1H-pyrazolo[3,4-d]pyrimidin-4-amine]",,,,,48,75,,7.5,193 to 195 °C,,,1.74 ± 0.71,
"CCCc1nc(Nc2ccccc2)c2cnn(CC(Cl)c3ccc(Cl)cc3)c2n1 (centres unmarked) [2s, 1-(2-Chloro-2-(4-chlorophenyl)ethyl)-N-phenyl-6-propyl-1H-pyrazolo[3,4-d]pyrimidin-4-amine]",,,,,,,,,154 to 156 °C,,,10.2 ± 2.11,
